In patent US20210236476A1, “METHODS OF TREATING CANCER WITH SMALL MOLECULE PD-L1 INHIBITORS” (CHEMOCENTRYX, INC., priority 2018, published 2021):
Entries after “also recorded” stand apart in the source; their conditions may differ.

How the values were obtained:
MDA-MB-231 cells = assay: flow cytometry of PD-L1 surface staining with acid wash; format: cell-based, human; details: FIG. 3
Method: To further investigate the possibility that Compound 1.041 reduces PD-L1 surface expression, flow cytometry analysis was formed on MDA-MB-231 cells after PD-L1 surface staining. An acid-wash protocol (cells were washed 3 times (5 minutes with shaking) with cold acid wash buffer (DMEM containing 0.2% BSA and adjusted to a 3.5 pH) followed by 3 washes (5 minutes with shaking) with ice cold PBS 1X) was used to confirm that differences in PD-L1 cell surface staining was not due to tested article interfering with detection antibody binding.

[1] = molecular target: T1, human PD-L1 / human PD-1 interaction (Homo sapiens, UniProt Q9NZQ7); assay: ELISA of PD-1/PD-L1 interaction; format: binding; details: FIG. 1, stated collectively for the assays
T1 construct: purchased R&D (PD-L1); ACRO Biosystems (PD-1, biotin)
How it was run: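 Plates coated with 1 μg/mL human PD-L1 and blocked with BSA; serially diluted (1:5) compounds plus biotinylated human PD-1 (0.3 μg/mL) incubated 1 h at 37° C. Bound PD-1 detected with streptavidin-HRP/TMB, absorbance at 450 nm.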

[2] = system: A375 human melanoma cells; assay: therapeutic dosing, A375 melanoma/PBMC co-implantation model; format: in vivo, NOD/SCID mice; details: established A375 tumors co-injected with human PBMCs; Compound 1.041 30mg/kg bid, anti-hPD-L1 5 mg/kg i.p., from day 28
Description: (§1) Co-crystallized human PD-1/PD-L1 provided structural information from which we developed a number of small molecule checkpoint inhibitors. Active compounds were first profiled by an ELISA assay measuring inhibition of the PD-1/PD-L1 interaction, followed by functional cell-based reporter and mixed lymphocyte reaction (MLR) assays. PD-1/PD-L1 inhibitory compounds thus identified were further selected for in vivo model testing.
As briefly described in Example 1 the therapeutic activity of Compound 1.041 was tested using immunodeficient NOD/SCID mice (NOD.CB17-Prkdc^scid/NCrHsd) where A375 human melanoma cells were co-implanted along with human peripheral blood mononuclear cells (PBMCs). The mice were broken into 4 groups (n=7 each group): +PBMCs+Vehicle; +PBMCs+Compound 1.041; +PBMCs +Isotype antibody; and +PBMCs+anti-hPD-L1. Anti-hPD-L1 and isotype matched control antibody were injected i.p. at 5 mg/kg on day 28, 32, 36, 40, and 44. Compound 1.041 (30mg/kg) and vehicle dose (1% HPMC) p.i. twice daily (bid) starting on day 28.

[3] = system: A375 human melanoma cells; assay: prophylactic dosing, A375 melanoma/PBMC co-implantation model; format: in vivo, NOD/SCID mice; details: Compound 1.041 30mg/kg bid, anti-hPD-L1 5 mg/kg i.p.
Description: as §1
As briefly described in Example 1, the prophylactic activity of Compound 1.041 was tested using immunodeficientp NOD/SCID mice (NOD.CB17-Prkdc^scid/NCrHsd) where A375 human melanoma cells were co-implanted along with human peripheral blood mononuclear cells (PBMCs). The mice were broken into 8 groups (n =10 each group): +/−PBMCs+Vehicle; +/−PBMCs+Compound 1.041; +/−PBMCs+Isotype antibody; and +/−PBMCs+anti-hPD-L1. Anti-hPD-L1 and isotype matched control antibody were injected i.p. at 5 mg/kg on day 1, 5, 9, 13, and 17. Compound 1.041 (30mg/kg) and vehicle dose (1% HPMC) p.i. twice daily (bid) starting on day 1.

hCD11C+hCD3- cells = assay: PD-L1 Surface Expression Assay (FACS); format: cell-based, human; details: 16 hours, FIG. 2C
Method: Briefly, this assay was performed as follows: Cells were seeded in 12 well plates. Test compounds or antibodies were added for 16 hours at different concentrations. Cells were washed and stained with anti-human PD-L1, anti-human CD11C and anti-human CD3 for 20 minutes at RT before performing FACS analysis. Matching isotype was used as a control.

[4] = system: human T-cells in A375 tumors; assay: tumor microenvironment analysis by flow cytometry (therapeutic dosing study); format: in vivo, NOD/SCID mice; details: compared to vehicle
Method: The tumor microenvironement of vehicle and Compound 1.041 treatments from the above experiment were further explored by dissecting, mincing and digested with collagenase D the tumors from relevant mice for analysis by flow cytometry. Briefly, this assay was performed as follows: Excised tumors were finely chopped with a blade and digested for 60 minutes at 37° C. in MSS 1X containing 2mg/ml of collagenase D and 1U/ml of DNAse I. Single cells were washed and resuspended in FACS buffer (PBS 1X with 10% FBS and 0.1% azide) containing the following monoclonal antibodies (hCD4 in FITC, PD-L1 in PE, CD3 in PercP-Cy5.5, CD45 in PE-Cy7, PD-1 in APC, CD8a in APC-Cy7, CD69 in Pacific Blue and LIVE/DEAD fixable Aqua stain). Isotype-matched controls were used as negative controls. Flow cytometry data were acquired with a FACSCanto II (BD Biosciences, San Jose, Calif.) cytometer and analyzed using FlowJO. […] The flow cytometer was gated on live cells singlets, hCD45^+ and hCD3^+ cells.

[5] = molecular target: recombinant PD-L1 proteins (dimerization) (Homo sapiens, UniProt Q9NZQ7); assay: dimerization ELISA assay; format: binding; details: FIG. 1B
Method: The activity of Compound 1.041 was assessed with an ELISA assay assessing the direct binding of recombinant PD-1 and PD-L1 proteins (FIG. 1A), a dimerization ELISA assay assessing the direct binding/dimerization of recombinant PD-L1 proteins (FIG. 1B), a cell based assay measuring the downstream signaling following the interaction of PD-1 and PD-L1 using a Luciferase reporter assay with cell lines overexpressing PD-1 and PD-L1 (FIG. 1C), and a mixed lymphocyte reaction assay measuring the functional outcome of upregulation of IFNg secretion, using allogenic primary human immune cells (FIG. 1D). Briefly, the mixed lymophocyte reaction assay was performed as follows: Dendritic cells and CD4+T Cells from unmatched donors were cultured together for 5 days in 96 well-flat bottom plates. Test compound was added as indicated at starting concentration of 1 μM with 1:4 dilutions with DMSO. Supernatants were harvested after 5 days of incubation and detection of human IFNg was performed by ELISA.

human PBMCs = assay: T-Cell Exhaustion assay (SEB); format: cell-based; details: human PBMCs stimulated with 100ng/mL SEB for three days; FIG. 2A

Chain of recombinant PD-L1 proteins (dimerization) (Q9NZQ7 19-239 limits assumed): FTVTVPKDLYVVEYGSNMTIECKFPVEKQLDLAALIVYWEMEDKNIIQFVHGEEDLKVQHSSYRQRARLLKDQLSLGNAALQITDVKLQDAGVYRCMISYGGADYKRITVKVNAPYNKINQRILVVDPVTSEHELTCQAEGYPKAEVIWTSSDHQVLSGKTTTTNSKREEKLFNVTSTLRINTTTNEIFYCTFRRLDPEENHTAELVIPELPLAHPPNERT
T1 sequence (Q9NZQ7 19-239 limits assumed): as above

C[C@@](CO)(NCc1cc(Cl)c(O[C@H]2CCc3c(-c4cccc(OCCCN5CC(O)C5)c4Cl)cccc32)cc1OCc1cncc(C#N)c1)C(=O)O [Compound 1.041, (S)-2-((5-chloro-4-(((S)-4(2-chloro-3-(3-(3-hydroxyazetidin-1-yl)propoxy)phenyl)-2,3-dihydro-1H-inden-1-yl)oxy)-2-((5-cyanopyridin-3-yl)methoxy)benzyl)amino)-3-hydroxy-2-methylpropanoic acid]
PD-L1 surface staining (MDA-MB-231 cells): reduced PD-L1 surface staining intensive; also recorded: PD-L1 expression decreases
blocking of PD-1/PD-L1 interaction [1]: highly potent and blocks PD-1/PD-L1 interaction
relative tumor growth [2]: reduced tumor growth in vivo to a similar extent as the positive control anti-human PD-L1 antibody; also recorded: significant inhibitory effect
tumor growth ([3]; A375 cells + co-injected hPBMCs, from day 1): reduced tumor growth in vivo to a similar extent as the positive control anti-human PD-L1 antibody; also recorded: inhibited tumor growth
tumor growth ([3]; A375 cells alone (no hPBMCs)): no effect on A375 tumor growth
PD-L1 surface expression (hCD11C+hCD3- cells): significantly reduced PD-L1 surface expression
PD-1 expression (mean fluorescence intensity) ([4]; human CD8+ T-cells from treated mice, FIG. 10): reduction in PD-1 expression
percentage of hCD8+ T-Cells in contrast to hCD4+ T-Cells ([4]; tumors, FIG. 9A-B): increases the percentage of hCH8^+ T-cells relative to hCH4^+ T-cells
ratio of hCD8+/hCD4+ T-cells ([4]; tumors, FIG. 9C): significantly higher CD8^+ T-Cell/CD4^+ T-cell ratio
induction of hPD-L1 dimerization [5]: induction of hPD-L1 dimerization
reversal of T cell exhaustion phenotype (IFN-g induction by SEB) (human PBMCs): reversed T cell exhaustion phenotype; also recorded: reverses T-Cell exhaustion phenotype
